Measured values from patent publication US20250296909A1, “NOVEL BENZENE DERIVATIVE AND IMMUNOSUPPRESSION-RELATED USE THEREOF” (PROVIBIO CO., LTD., priority 2021, published 2025).
Read-outs that look alike come from different tables or passages of the source.

Legend:
[1] = test system: spleen T cells; assay: T cell proliferation inhibition (CFSE, FACS), CD3/CD28-activated spleen T cells; format: cell-based, C57BL/6 mice; conditions: for inhibition at 10 µM / inhibition at 30 µM / inhibition at 50 µM: Mus musculus, T-cell, read-out: Proliferation inhibition rate (%)
Description: To investigate whether the compounds obtained in the Preparation Example have an inhibitory effect on T cell proliferation, the T cell proliferation was determined ex vivo using the fluorescent dye carboxyfluorescein diacetate succinimidyl ester (CFSE), which binds to intracellular molecules by covalent bonds.
Spleens were harvested and minced from C57BL/6 mice at 7 weeks of age, and then single cells were isolated using a strainer (40 μm pore size, SPL). Red blood cells were removed using ACK (Ammonium-Chloride-Potassium) lysis buffer to isolate only leukocytes. Subsequently, CD90.2 microbeads (130-121-278, Miltenyi Biotech.) were added, and subjected to react at 4° C. for 20 minutes. After that, spleen T cells were isolated using a MACS Magnetic Stand and LS column. The isolated T cells from the spleen were resuspended in 1 mL of Free media (RPMI-1640+200 U/mL penicillin+200 μg/mL streptomycin), followed by the addition of 0.3 μL of CFSE (10 mM), and reacted at 37° C. for 5 minutes. Subsequently, 10 mL of Free media was added to stop the reaction, and the cells were centrifuged to obtain the cell pellet. RPMI 1640 medium containing 10% FBS, 100 U/mL penicillin, and 100 μg/mL streptomycin was added to suspend the cells, and 2×10^5 cells per well were seeded into a 96-well plate and T cells were activated by treatment with CD3 and CD28 antibodies (each at 0.5 μg/mL).
The compound diluted in DMSO was treated in triplicate at concentrations of 10 μM, 30 μM, and 50 μM, respectively. After incubation at 37° C. with 5% CO2 for 3 days, cell proliferation levels were determined using a FACS Canto machine.
In the FACS graph of FIG. 1, the y-axis represents the quantity (number) of cells, while the x-axis represents the fluorescence level of the cells. […] This reduction in CFSE fluorescence results in a leftward shift along the x-axis in the graph. This indicates cell proliferation.
To collectively indicate the proliferation inhibition rate for the experimental results, the relative value of the proliferation amount after compound administration to the proliferation amount after CD3/CD28+DMSO administration was calculated. Subsequently, it was converted into an inhibition amount and expressed as a percentage, thereby determining the proliferation inhibition rate. Specifically, the proliferation inhibition rate was calculated as follows: […]

[2] = test system: T lymphocyte cell line Jurkat E6-1; assay: Cytotoxicity experiment (CCK-8, relative cell survival); format: cell-based; conditions: 24 hours, untreated cells = 100%
Description: To evaluate the cytotoxicity of the compound according to the present invention, the following experiment was conducted.
The T lymphocyte cell line Jurkat E6-1, purchased from the Korean Cell Line Bank, was cultured in RPMI-1640 medium comprising 10% FBS, 100 U/mL penicillin, and 100 μg/mL streptomycin. After culturing, the cells were harvested and centrifuged at 1,300 rpm for 5 minutes. After removal of the supernatant, the cells were resuspended in the same medium at a concentration of approximately 2.2×10^5 cells/mL, and 90 μL of the cell suspension was distributed per well into a 96-well plate (Costar 96 well cell culture plate, Corning). After treating 10 μL of each compound at different concentrations onto the respective wells of the plate, it was cultured for 24 hours at 37° C. in a 5% CO2 incubator. Subsequently, 10 μL of CCK-8 was added to each well, and it was cultured again for 2 hours at 37° C. in a 5% CO2 incubator. Absorbance was then measured at 450 nm to determine the relative cell survival rate compared to untreated cells, as shown in Table 4.
The values listed in Table 4 represent the relative cell survival rates in the groups treated with each compound at different concentrations, with the cell survival rate of untreated cells set as 100%.

[3] = Table 3 (compounds not belonging to Formula 1), 10 μM
[4] = Table 3 (compounds not belonging to Formula 1), 30 μM
[5] = Table 3 (compounds not belonging to Formula 1), 50 μM
[6] = 72 h, Table 2, 10 μM, 3 days, relative to CD3/CD28+DMSO
[7] = 72 h, Table 2, 30 μM, 3 days, relative to CD3/CD28+DMSO
[8] = 72 h, Table 2, 50 μM, 3 days, relative to CD3/CD28+DMSO
[9] = Table 2, 10 μM, 3 days, relative to CD3/CD28+DMSO
[10] = Table 2, 30 μM, 3 days, relative to CD3/CD28+DMSO
[11] = Table 2, 50 μM, 3 days, relative to CD3/CD28+DMSO

| Structure (SMILES) | inhibition at 10 µM [1, 6] | inhibition at 30 µM [1, 7] | inhibition at 50 µM [1, 8] | Relative cell survival rate (%) ([2]; 10 μM) | Relative cell survival rate (%) ([2]; 20 μM) | Relative cell survival rate (%) ([2]; 30 μM) | Relative cell survival rate (%) ([2]; 50 μM) | also measured |
| --- | --- | --- | --- | --- | --- | --- | --- | --- |
| O=C(NCCCc1ccccc1)c1ccccc1Br [Compound 4] |  |  |  |  |  |  |  | inhibition at 10 µM [1, 3]: 23%; inhibition at 30 µM [1, 4]: 12%; inhibition at 50 µM [1, 5]: 16% |
| CCCCCCCCCCCCNC(=O)c1ccc(Cl)cc1Cl [Compound 60] | 10% | 72% | 98% |  |  |  |  |  |
| O=C(NCCCCCCCCCC1CO1)c1ccccc1Br (stereo not shown) [Compound 17] |  |  |  | 106% | 80% | 80% | 66% |  |
| O=C(Nc1ccccc1Br)c1ccccc1Br [Compound 9] |  |  |  |  |  |  |  | inhibition at 10 µM [1, 3]: 0%; inhibition at 30 µM [1, 4]: 0%; inhibition at 50 µM [1, 5]: 0%; cell proliferation read by FACS (FIG. 2) ([1]; even at a concentration of 50 μM): no inhibition of cell proliferation |
| CCCCCCCCCCCCNS(=O)(=O)c1ccccc1N [Compound 46] |  |  |  |  |  |  |  | Proliferation inhibition rate (%) [1, 9]: 47%; Proliferation inhibition rate (%) [1, 10]: 94%; Proliferation inhibition rate (%) [1, 11]: 93% |
| CCCCCCCCCCCCNC(=O)c1ccc2cccc(O)c2n1 [Compound 21] |  |  |  | 101% | 106% | 109% | 124% |  |
| O=C(Nc1ccccc1)c1ccncc1Br [Compound 1] |  |  |  |  |  |  |  | inhibition at 10 µM [1, 3]: 9%; inhibition at 30 µM [1, 4]: 6%; inhibition at 50 µM [1, 5]: 7% |
| CCCCCCCCCCCCNC(=O)c1cc2ccccc2cc1N [Compound 23] |  |  |  | 66% | 62% | 62% | 54% |  |
| CCCCCCCCCCCCNS(=O)(=O)c1cnccc1O [Compound 72] | 68% | 80% | 86% |  |  |  |  |  |
| CCCCCCCCCCCC(=O)Nc1ccccc1Br [Compound 42] |  |  |  | 110% | 109% | 104% | 103% |  |
| CCCCCCCCCCCCNC(=O)c1cc(Cl)cc(Cl)c1O [Compound 28] | 11% | 47% | 91% |  |  |  |  |  |
| CCCCCCCCCCCCNC(=O)c1cccnc1SC [Compound 24] |  |  |  | 71% | 68% | 61% | 54% |  |
| CCCCCCCCCCCCNC(=O)c1ncccc1Cl [Compound 11] | 10% | 62% | 99% |  |  |  |  |  |
| CCCCCCCCCCCCNC(=O)c1cccnc1S [Compound 80] |  |  |  |  |  |  |  | Proliferation inhibition rate (%) [1, 9]: 43%; Proliferation inhibition rate (%) [1, 10]: 100%; Proliferation inhibition rate (%) [1, 11]: 100% |
| CCCCCCCCCCCCNC(=O)c1ccc2ccccc2n1 [Compound 22] |  |  |  | 42% | 42% | 39% | 36% |  |
| CCCCCCCCCCCCNC(=O)c1ncccn1 [Compound 79] | 46% | 88% | 100% |  |  |  |  |  |
